Assays:
Type in all cases: functional
Acanthocheilonema viteae [1] = experiment: Compound was tested in vivo for anti-filarial activity against A. viteae through oral route of administration at 200 mg/kg for 5 days and sterilization of female worms was observed
Acanthocheilonema viteae [2] = experiment: Compound was tested in vivo for anti-filarial activity against A. viteae through oral route of administration at 200 mg/kg for 5 days and microfilaricidal response was observed
Acanthocheilonema viteae [3] = experiment: Compound was tested in vivo for anti-filarial activity against A. viteae through oral route of administration at 200 mg/kg for 5 days and macrofilaricidal response was observed
Acanthocheilonema viteae [4] = experiment: Compound was tested in vivo for anti-filarial activity against A. viteae through oral route of administration at 200 mg/kg for 5 days and sterilization of inactive worms was observed

Structure (SMILES) | Activity (Acanthocheilonema viteae [1]) | Reduction (Acanthocheilonema viteae [2]) | Reduction (Acanthocheilonema viteae [3]) | Activity (Acanthocheilonema viteae [4])
CCCCCCCNc1ccccc1 | 0% | 69% | 0% | –
CCCCNc1ccc(F)c(Cl)c1 | – | 32% | 0% | 0%
CCCCCCNc1ccc(F)cc1 | 0% | 0% | 50% | –
CCCCN(CCCC)c1ccc(F)cc1 | – | 81% | 0% | 50%
CCCCN(CCCC)c1ccccc1 | – | 77% | 0% | 55%
CCCCCCNc1ccc(F)c(Cl)c1 | 0% | 50% | 88% | –
CCCCCCNc1ccccc1 | 0% | 58% | 50% | –
CCCCN(CCCC)C1CCCCC1 | 50% | 93% | 0% | –
CCCCCCNC1CCCCC1 | 0% | 0% | 100% | –

Source: ChEMBL document CHEMBL1133387, “Secondary amines as new pharmacophores for macrofilaricidal drug design” (2000)
